32 compounds from patent US9662328B2, “Targeting human thymidylate kinase induces DNA repair toxicity in malignant tumor cells” (NATIONAL YANG-MING UNIVERSITY, priority 2010, dated 2017) can be followed below.

Molecules are shown by their SMILES.

In experiment [1] the target is T1, hTMPK (Homo sapiens, UniProt P23919).
T1 sequence (P23919 1-212): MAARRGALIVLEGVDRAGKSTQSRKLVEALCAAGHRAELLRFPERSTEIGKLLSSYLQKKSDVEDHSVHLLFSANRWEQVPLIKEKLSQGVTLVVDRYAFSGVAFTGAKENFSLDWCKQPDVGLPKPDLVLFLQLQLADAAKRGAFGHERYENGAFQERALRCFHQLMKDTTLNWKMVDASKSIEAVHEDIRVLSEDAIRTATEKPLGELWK
The experiment can be described thus: In vitro inhibitory activity against human TMPK at 2 μM. The settings on record: test compounds at 2 μM concentration. Type of experiment: biochemical. As to the method:
(§1) The TMPK reaction was started by adding purified hTMPK in 50 μl of TMPK assay buffer (100 mM Tris-HCl, pH 7.5, 100 mM KCl, 10 mM MgCl2, 50 μM ATP and 100 μM dTMP) in 96 wells plate at 25° C. for 10 min and terminated by adding 200 μl of DTNB (100 μM), followed by transferring 10 μl of reaction solution to a white 96-wellplate containing 90 μl of luciferase assay buffer (50 mM Glycine, 0.5 mM EDTA and 5 mM EDTA, pH 7.0, 0.1 μg of luciferase, 50 μM luciferin and 0.1% BSA). The luminescence was measured with a luminescence counter (Packard).
(§2) All reactions were performed in 96-well plates in an assay volume of 100 μl. The activity of hTMPK was measured at 25° C. using a modified NADH coupled colorimetric assay as described (Agarwal et al., 1978; Miyata et al., 2003; Ostermann et al., 2003), in which purified hTMPK was added to the buffer containing 100 mM Tris-HCl, pH 7.5, 100 mM KCl, 10 mM MgCl2, 0.5 mM phosphoenol pyruvate, 0.25 mM NADH, 5 units of lactate dehydrogenase, 4 units of pyruvate kinase, 1 mM ATP, and 200 μM dTMP. The change of NADH was measured by reading the absorbance at 340 nm. One unit of TMPK activity is defined as the conversion of […] of TMP to TDP per minute.
The in vitro inhibitory activities of test compounds (at 2 μM concentration) against human TMPK are shown in Table 3 and compared with that of YMU1 and YMU2.

Experiment [2] deals with T1, hTMPK. Kind of experiment: IC50 determination by enzymatic assay. Type of experiment: biochemical. As to the method:
as §1, §2
In one embodiment, the IC50 values were determined by enzymatic assay.

On hTMPK [1], `CC(C)(C)OC(=O)N1CCN(C(=O)Cn2sc3ncccc3c2=O)CC1` [I-a-1, Tert-butyl 4-(2-(3-oxoisothiazolo[5,4-b]pyridin-2(3H)-yl)acetyl)piperazine-1-carboxylate] displayed an inhibition at 2 µM of 77 ± 4%.

Consider `O=C(Cn1sc2ncccc2c1=O)N1CCN(C(=O)Oc2ccc([N+](=O)[O-])cc2)CC1` [I-a-2, 4-Nitrophenyl 4-(2-(3-oxoisothiazolo[5,4-b]pyridin-2(3H)-yl)acetyl)piperazine-1-carboxylate], for which the inhibition at 2 µM at hTMPK [1] is 80 ± 10%.

For `Cc1cc(N)nc2sn(CC(=O)N3CCN(C(=O)OC(C)(C)C)CC3)c(=O)c12` [I-a-3, Tert-butyl 4-[(6-amino-4-methyl-3-oxoisothiazolo[5,4-b]pyridin-2(3H)-2-yl)acetyl]piperazine-1-carboxylate], testing at 2 µM against hTMPK [1] gave an inhibition of 16 ± 5%. On the same count and under the same terms, the result for `Cc1cc(N)nc2sn(CC(=O)N3CCN(C(=O)Oc4ccc([N+](=O)[O-])cc4)CC3)c(=O)c12` [I-a-4, 4-Nitrophenyl 4-[2-(6-amino-4-methyl-3-oxoisothiazolo[5,4-b]pyridin-2(3H)-yl)acetyl]piperazine-1-carboxylate] reads 10 ± 7%. The compound `Cc1cc(O)nc2sn(CC(=O)N3CCN(C(=O)OC(C)(C)C)CC3)c(=O)c12` [I-a-5, Tert-butyl 4-[(6-hydroxy-4-methyl-3-oxoisothiazolo[5,4-b]pyridin-2(3H)-2-yl)acetyl]piperazine-1-carboxylate] registered an inhibition at 2 µM on hTMPK [1] of 93 ± 9%. In addition, half-maximal inhibition against hTMPK [2] (IC50) required 500 nM.

`Cc1cc(C)c2c(=O)n(CC(=O)N3CCN(C(=O)CNC(=O)Nc4ccccc4)CC3)sc2n1` [I-b-2, 1-(2-(4-(2-(4,6-Dimethyl-3-oxoisothiazolo[5,4-b]pyridin-2(3H)-yl)acetyl)piperazin-1-yl)-2-oxoethyl)-3-phenylurea]: the inhibition at 2 µM against hTMPK [1] turned out to be 32 ± 2%. `Cc1cc(C)c2c(=O)n(CC(=O)N3CCN(C(=O)CI)CC3)sc2n1` [I-b-3, 4,6-Dimethyl-2-[2-(4-(2-iodoacetyl)piperazin-1-yl)-2-oxoethyl]-isothiazolo[5,4-b]pyridin-3(2H)-one]: the inhibition at 2 µM against hTMPK [1] amounted to 29 ± 3%. Same read-out and setting: the result for `O=C(Cn1sc2ncccc2c1=O)N1CCNCC1` [I-c-1, 2-(2-Oxo-2-(piperazin-1-yl)ethyl)isothiazolo[5,4-b]pyridin-3(2H)-one] reads 75 ± 11%; that for `Cc1cc(C)c2c(=O)n(CC(=O)N3CCNCC3)sc2n1` [I-c-2, 4,6-Dimethyl-2-(2-oxo-2-(piperazin-1-yl)ethyl)isothiazolo[5,4-b]pyridin-3(2H)-one], 46 ± 2%; that for `Cc1cc(N)nc2sn(CC(=O)N3CCNCC3)c(=O)c12` [I-c-3, 6-Amino-4-methyl-2-[2-oxo-2-(piperazin-1-yl)ethyl]isothiazolo[5,4-b]pyridin-3(2H)-one], 6 ± 5%. The same measure, in the same setting: for `CCOC(=O)N1CCN(C(=O)Cn2sc3ccccc3c2=O)CC1` [I-d-1, Ethyl 4-(2-(3-oxobenzo[d]isothiazol-2(3H)-yl)acetyl)piperazine-1-carboxylate] the value was 79 ± 5%; for `CC(C)(C)OC(=O)N1CCN(C(=O)Cn2sc3ccccc3c2=O)CC1` [I-d-2, Tert-butyl 4-(2-(3-oxobenzo[d]isothiazol-2(3H)-yl)acetyl)piperazine-1-carboxylate], 100 ± 9%; for `O=C(Cn1sc2ccccc2c1=O)N1CCN(C(=O)OCc2ccccc2)CC1` [I-d-3, Benzyl 4-(2-(3-oxobenzo[d]isothiazol-2(3H)-yl)acetyl)piperazine-1-carboxylate], 54 ± 1%.

In turn, `CC(C)(C)OC(=O)N1CCN(C(=O)Cn2sc3cccc(F)c3c2=O)CC1` [I-d-5, Tert-butyl 4-(2-(4-fluoro-3-oxobenzo[d]isothiazol-2(3H)-yl)acetyl)piperazine-1-carboxylate] displayed an inhibition at 2 µM against hTMPK [1] of 56 ± 4%. Still for that read-out and setting: for `CC(C)(C)OC(=O)N1CCN(C(=O)Cn2sc3c(F)cccc3c2=O)CC1` [I-d-8, Tert-butyl 4-(2-(7-fluoro-3-oxobenzo[d]isothiazol-2(3H)-yl)acetyl)piperazine-1-carboxylate] the value was 25 ± 3%. On hTMPK [1], `CC(C)(C)OC(=O)N1CCN(C(=O)Cn2sc3cc(Cl)ccc3c2=O)CC1` [I-d-9, Tert-butyl 4-(2-(6-chloro-3-oxobenzo[d]isothiazol-2(3H)-yl)acetyl)piperazine-1-carboxylate] gave an inhibition at 2 µM of 55 ± 7%. Same read-out and setting: for `CC(C)(C)OC(=O)N1CCN(C(=O)Cn2sc3cc(Br)ccc3c2=O)CC1` [I-d-10, Tert-butyl 4-(2-(6-bromo-3-oxobenzo[d]isothiazol-2(3H)-yl)acetyl)piperazine-1-carboxylate] the value was 56%. On hTMPK [1], `O=C(Cn1sc2cc(Br)ccc2c1=O)N1CCN(C(=O)Oc2ccc([N+](=O)[O-])cc2)CC1` [I-d-11, 4-Nitrophenyl 4-(2-(6-bromo-3-oxobenzo[d]isothiazol-2(3H)-yl)acetyl)piperazine-1-carboxylate] displayed an inhibition at 2 µM of 86 ± 6%. Still for that read-out and setting: for `CC(C)(C)OC(=O)N1CCN(C(=O)Cn2sc3cc(C(F)(F)F)ccc3c2=O)CC1` [I-d-12, Tert-butyl4-(2-(3-oxo-6-(trifluoromethyl)benzo[d]isothiazol-2(3H)-yl)acetyl)-piperazine-1-carboxylate] the value was 84 ± 1%; for `CC(C)(C)OC(=O)N1CCN(C(=O)Cn2sc3cc(N)ccc3c2=O)CC1` [I-d-13, Tert-butyl 4-(2-(6-amino-3-oxobenzo[d]isothiazol-2(3H)-yl)acetyl)piperazine-1-carboxylate], 39 ± 14%. Still for that read-out and setting: for `CC(C)(C)OC(=O)N1CCN(C(=O)Cn2sc3cc(N=[N+]=[N-])ccc3c2=O)CC1` [I-d-14, tert-butyl 4-(2-(6-azido-3-oxobenzo[d]isothiazol-2(3H)-yl)acetyl)piperazine-1-carboxylate] the value was 66 ± 5%.

As to `COc1ccc2c(=O)n(CC(=O)N3CCN(C(=O)OC(C)(C)C)CC3)sc2c1` [I-d-15, Tert-butyl 4-(2-(6-methoxy-3-oxobenzo[d]isothiazol-2(3H)-yl)acetyl)piperazine-1-carboxylate], the inhibition at 2 µM on hTMPK [1] amounted to 51 ± 9%.

At hTMPK [1], `CC(C)(C)OC(=O)N1CCN(C(=O)Cn2sc3cc(O)ccc3c2=O)CC1` [I-d-16, Tert-butyl 4-(2-(6-hydroxy-3-oxobenzo[d]isothiazol-2(3H)-yl)acetyl)piperazine-1-carboxylate] returned an inhibition at 2 µM of 22 ± 12%. Consider `CC(C)(C)OC(=O)N1CCN(C(=O)Cn2sc3cc(O[Si](C)(C)C(C)(C)C)ccc3c2=O)CC1` [I-d-17, Tert-butyl 4-(2-(6-((tert-butyldimethylsilyl)oxy)-3-oxobenzo[d]isothiazol-2(3H)-yl)-acetyl)piperazine-1-carboxylate], for which, on hTMPK [1], the inhibition at 2 µM is 80 ± 4%. Same read-out and setting: the result for `CCCCCCCCc1cn(-c2ccc3c(=O)n(CC(=O)N4CCN(C(=O)OC(C)(C)C)CC4)sc3c2)nn1` [I-d-18, Tert-butyl 4-(2-(6-(4-octyl-1H-1,2,3-triazol-1-yl)-3-oxobenzo[d]isothiazol-2(3H)-yl)acetyl)piperazine-1-carboxylate] reads 78 ± 7%; that for `O=C(CI)N1CCN(C(=O)Cn2sc3ccccc3c2=O)CC1` [I-e-1, 2-[2-(4-(2-Iodoacetyl)piperazin-1-yl)-2-oxoethyl]benzo[d]isothiazol-3(2H)-one], 31 ± 5%.

`O=C(CN=C=S)N1CCN(C(=O)Cn2sc3ccccc3c2=O)CC1` [I-e-4, 2-(2-(4-(2-Isothiocyanatoacetyl)piperazin-1-yl)-2-oxoethyl)benzo[d]isothiazol-3(2H)-one] yielded an inhibition at 2 µM on hTMPK [1] of 63 ± 10%. On the same count and under the same terms, the result for `COc1ccc(NC(=O)NCC(=O)N2CCN(C(=O)Cn3sc4ccccc4c3=O)CC2)cc1` [I-e-6, 1-(4-Methoxyphenyl)-3-(2-oxo-2-(4-(2-(3-oxobenzo[d]isothiazol-2(3H)-yl)acetyl)piperazin-1-yl)ethyl)urea] reads 55 ± 7%; that for `CCCCNC(=O)NCC(=O)N1CCN(C(=O)Cn2sc3ccccc3c2=O)CC1` [I-e-7, Butyl-3-(2-oxo-2-(4-(2-(3-oxobenzo[d]isothiazol-2(3H)-yl)acetyl)piperazin-1-yl)ethyl)urea], 50 ± 5%.

The compound `O=C(Cn1sc2ccccc2c1=O)N1CCNCC1` [I-f-1, 2-(2-Oxo-2-(piperazin-1-yl)ethyl)benzo[d]isothiazol-3(2H)-one] had an inhibition at 2 µM at hTMPK [1] of 34 ± 2%.

`O=C(Cn1sc2cc(Br)ccc2c1=O)N1CCNCC1` [I-f-2, 6-Bromo-2-(2-oxo-2-(piperazin-1-yl)ethyl)benzo[d]isothiazol-3(2H)-one] yielded an inhibition at 2 µM at hTMPK [1] of 38 ± 14%.

Compound `Cc1cc(C)c2c(=O)n(CC(=O)N3CCN(C(=O)OC(C)(C)C)CC3)sc2n1` [YMU2, reference compound] registered an inhibition at 2 µM against hTMPK [1] of 46 ± 2%.
